Data: patent US10981917B2, “Heterocyclic compound, its preparation method, and pharmaceutical composition comprising the same” (Daewoong Pharmaceutical Co., Ltd., priority 2017, dated 2021)

Target: PRS (prolyl-tRNA synthetase) protein, PRS portion of EPRS (Homo sapiens (Human), UniProt P07814)
Assay: PRS enzyme activity inhibition experiment ([3H]proline, liquid scintillation)
Type: biochemical
Conditions: purified PRS protein, 37° C. for 5 to 10 minutes
How it was run: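 Values are % inhibition or IC50 ranges (A ≤100 nM, B 100–500 nM, C ≥500 nM) from [3H]proline incorporation measured by liquid scintillation. PRS portion of human EPRS, reacted 5–10 min at 37 °C in pH 7.4 phosphate buffer containing 5 mM ATP and tRNA, compound at 1 μM.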

Chain of PRS (prolyl-tRNA synthetase) protein, PRS portion of EPRS (P07814 1007-1512): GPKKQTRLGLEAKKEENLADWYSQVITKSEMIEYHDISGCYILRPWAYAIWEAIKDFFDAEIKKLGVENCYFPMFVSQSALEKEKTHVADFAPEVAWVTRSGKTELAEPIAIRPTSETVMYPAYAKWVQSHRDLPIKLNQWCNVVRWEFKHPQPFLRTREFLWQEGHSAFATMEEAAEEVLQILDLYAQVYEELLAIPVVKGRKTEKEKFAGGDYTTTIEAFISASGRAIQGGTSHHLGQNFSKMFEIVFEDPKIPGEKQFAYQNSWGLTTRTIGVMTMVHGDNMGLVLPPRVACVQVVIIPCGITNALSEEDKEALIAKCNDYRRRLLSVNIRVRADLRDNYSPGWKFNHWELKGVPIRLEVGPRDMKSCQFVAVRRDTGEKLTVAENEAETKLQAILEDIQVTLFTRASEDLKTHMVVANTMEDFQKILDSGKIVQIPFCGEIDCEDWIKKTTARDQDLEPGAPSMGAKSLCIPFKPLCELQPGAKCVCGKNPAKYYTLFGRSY

CCN(C)c1ncnc2c1ncn2CCC[C@H]1NCCC[C@@H]1O [Example 139, (2R,3S)-2-(3-(6-(ethyl(methyl)amino)-9H-purin-9-yl)propyl)piperidin-3-ol]
IC50: ≥ 500 nM

O=C(O)c1cn(C/C=C/[C@H]2NCCC[C@@H]2O)c2cc(F)ccc12 [Example 208, 6-fluoro-1-((E)-3-((2R,3S)-3-hydroxypiperidin-2-yl)allyl)-1H-indole-3-carboxylic acid]
IC50: ≥ 500 nM

O[C@H]1CCCN[C@@H]1CCCn1cnc2cc(Cl)cc(-c3ccoc3)c21 [Example 104, (2R,3S)-2-(3-(5-chloro-7-(furan-3-yl)-1H-benzo[d]imidazol-1-yl)propyl)piperidin-3-ol]
IC50: ≤ 100 nM

O[C@H]1CCCN[C@@H]1/C=C/CN1CCc2ccccc21 [Example 194, (2R,3S)-2-((E)-3-(indolin-1-yl)prop-1-en-1-yl)piperidin-3-ol]
IC50: ≥ 500 nM

Cc1c(Br)ccc2c1ncn2CCC[C@H]1NCCC[C@@H]1O [Example 45, (2R,3S)-2-(3-(5-bromo-4-methyl-1H-benzo[d]imidazol-1-yl)propyl)piperidin-3-ol]
IC50: 100 to 500 nM

O[C@H]1CCCN[C@@H]1/C=C/Cn1cnc2cc(Br)c(Br)cc21 [Example 170, (2R,3S)-2-((E)-3-(5,6-dibromo-1H-benzo[d]imidazol-1-yl)prop-1-en-1-yl)piperidin-3-ol]
IC50: 100 to 500 nM

O[C@H]1CCCN[C@@H]1CCCn1cnc2cc(Br)ncc21 [Example 125, (2R,3S)-2-(3-(6-bromo-3H-imidazo[4,5-c]pyridin-3-yl)propyl)piperidin-3-ol]
IC50: ≥ 500 nM

O[C@H]1CCCN[C@@H]1/C=C/Cn1cnc2cc(Cl)cc(Cl)c21 [Example 182, (2R,3S)-2-((E)-3-(5,7-dichloro-1H-benzo[d]imidazol-1-yl)prop-1-en-1-yl)piperidin-3-ol]
IC50: ≤ 100 nM

CCOC(=O)c1occc1-c1cc(Cl)cc2ncn(CCC[C@H]3NCCC[C@@H]3O)c12 [Example 110, ethyl 3-(5-chloro-1-(3-((2R,3S)-3-hydroxypiperidin-2-yl)propyl)-1H-benzo[d]imidazol-7-yl)furan-2-carboxylate]
IC50: ≥ 500 nM

O[C@H]1CCCN[C@@H]1CCCn1cnc2cccc(Cl)c21 [Example 12, (2R,3S)-2-(3-(7-chloro-1H-benzo[d]imidazol-1-yl)propyl)piperidin-3-ol]
IC50: 100 to 500 nM

O[C@H]1CCCN[C@@H]1CCCn1cnc2cccc(F)c21 [Example 9, (2R,3S)-2-(3-(7-fluoro-1H-benzo[d]imidazol-1-yl)propyl)piperidin-3-ol]
IC50: ≥ 500 nM

Cc1c(Cl)ccc2c1ncn2C/C(F)=C/[C@H]1NCCC[C@@H]1O [Example 217, (2R,3S)-2-((Z)-3-(5-chloro-4-methyl-1H-benzo[d]imidazol-1-yl)-2-fluoroprop-1-enyl)piperidin-3-ol]
IC50: ≥ 500 nM

O[C@H]1CCCN[C@@H]1CCCn1cnc2ccc(Cl)nc21 [Example 118, (2R,3S)-2-(3-(5-chloro-3H-imidazo[4,5-b]pyridin-3-yl)propyl)piperidin-3-ol]
IC50: ≥ 500 nM

C/C(=C\[C@H]1NCCC[C@@H]1O)Cn1cnc2c(C)c(Br)ccc21 [Example 222, (2R,3S)-2-((E)-3-(5-bromo-4-methyl-1H-benzo[d]imidazol-1-yl)-2-methylprop-1-en-1-yl)piperidin-3-ol]
IC50: ≥ 500 nM

O[C@H]1CCCN[C@@H]1CCCn1cnc2ccc(-c3cn[nH]c3)cc21 [Example 30, (2R,3S)-2-(3-(6-(1H-pyrazol-4-yl)-1H-benzo[d]imidazol-1-yl)propyl)piperidin-3-ol]
IC50: 100 to 500 nM

Cc1c(Cl)cnc2c1ncn2C/C=C/[C@H]1NCCC[C@@H]1O [Example 188, (2R,3S)-2-((E)-3-(6-chloro-7-methyl-3H-imidazo[4,5-b]pyridin-3-yl)prop-1-en-1-yl)piperidin-3-ol]
IC50: ≥ 500 nM

CN(C)C(=O)c1cn(C/C=C/[C@H]2NCCC[C@@H]2O)c2ccc(Br)cc12 [Example 216, 5-bromo-1-((E)-3-((2R,3S)-3-hydroxypiperidin-2-yl)allyl)-N,N-dimethyl-1H-indole-3-carboxamide]
IC50: ≥ 500 nM

O[C@H]1CCCN[C@@H]1/C=C/Cn1cnc2c(Cl)c(-c3cccc(Cl)c3)cnc21 [Example 185, (2R,3S)-2-((E)-3-(7-chloro-6-(3-chlorophenyl)-3H-imidazo[4,5-b]pyridin-3-yl)prop-1-en-1-yl)piperidin-3-ol]
IC50: ≥ 500 nM

Cc1ccc2ncn(CCC[C@H]3NCCC[C@@H]3O)c2c1 [Example 13, (2R,3S)-2-(3-(6-methyl-1H-benzo[d]imidazol-1-yl)propyl)piperidin-3-ol]
IC50: ≥ 500 nM

O[C@H]1CCCN[C@@H]1CCCn1cnc2cc(Cl)cc(-c3cnn(C(F)F)c3)c21 [Example 89, (2R,3S)-2-(3-(5-chloro-7-(1-(difluoromethyl)-1H-pyrazol-4-yl)-1H-benzo[d]imidazol-1-yl)propyl)piperidin-3-ol]
IC50: ≤ 100 nM

O[C@H]1CCCN[C@@H]1CCCn1cnc2ccc(C(F)(F)F)nc21 [Example 129, (2R,3S)-2-(3-(5-(trifluoromethyl)-3H-imidazo[4,5-b]pyridin-3-yl)propyl)piperidin-3-ol]
IC50: ≥ 500 nM

Cc1cc2c(cc1F)ncn2CCC[C@H]1NCCC[C@@H]1O [Example 39, (2R,3S)-2-(3-(5-fluoro-6-methyl-1H-benzo[d]imidazol-1-yl)propyl)piperidin-3-ol]
IC50: 100 to 500 nM

COC(=O)c1cn(CCC[C@H]2NCCC[C@@H]2O)c2cc(Cl)ccc12 [Example 153, methyl 6-chloro-1-(3-((2R,3S)-3-hydroxypiperidin-2-yl)propyl)-1H-indole-3-carboxylate]
IC50: 100 to 500 nM

O[C@H]1CCCN[C@@H]1CCCn1cnc2c(F)cccc21 [Example 6, (2R,3S)-2-(3-(4-fluoro-1H-benzo[d]imidazol-1-yl)propyl)piperidin-3-ol]
IC50: ≥ 500 nM

Cc1c(Cl)cnc2c1ncn2CCC[C@H]1NCCC[C@@H]1O [Example 131, (2R,3S)-2-(3-(6-chloro-7-methyl-3H-imidazo[4,5-b]pyridin-3-yl)propyl)piperidin-3-ol]
IC50: 100 to 500 nM

COc1cc2ncn(CCC[C@H]3NCCC[C@@H]3O)c2cc1F [Example 38, (2R,3S)-2-(3-(6-fluoro-5-methoxy-1H-benzo[d]imidazol-1-yl)propyl)piperidin-3-ol]
IC50: ≥ 500 nM

O[C@H]1CCCN[C@@H]1CCCn1cnc2cc(C(F)(F)F)cc(Br)c21 [Example 71, (2R,3S)-2-(3-(7-bromo-5-(trifluoromethyl)-1H-benzo[d]imidazol-1-yl)propyl)piperidin-3-ol]
IC50: 100 to 500 nM

Cc1ccc2c(nc(CO)n2CCC[C@H]2NCCC[C@@H]2O)c1C [Example 146, (2R,3S)-2-(3-(2-(hydroxymethyl)-4,5-dimethyl-1H-benzo[d]imidazol-1-yl)propyl)piperidin-3-ol]
IC50: ≥ 500 nM

O[C@H]1CCN[C@@H]1/C=C/Cn1cnc2cc(Cl)c(Cl)cc21 [Example 230, (2R,3S)-2-((E)-3-(5,6-dichloro-1H-benzo[d]imidazol-1-yl)prop-1-en-1-yl)pyrrolidin-3-ol]
IC50: ≥ 500 nM

Cc1c(Br)cnc2c1ncn2C/C=C/[C@H]1NCCC[C@@H]1O [Example 186, (2R,3S)-2-((E)-3-(6-bromo-7-methyl-3H-imidazo[4,5-b]pyridin-3-yl)prop-1-en-1-yl)piperidin-3-ol]
IC50: 100 to 500 nM

Cc1ccc2c(ncn2C/C=C/[C@H]2NCCC[C@@H]2O)c1C [Example 172, (2R,3S)-2-((E)-3-(4,5-dimethyl-1H-benzo[d]imidazol-1-yl)prop-1-en-1-yl)piperidin-3-ol]
IC50: ≥ 500 nM

O[C@H]1CCCN[C@@H]1CCCn1cnc2ccc(-c3cccc(F)c3)cc21 [Example 24, (2R,3S)-2-(3-(6-(3-fluorophenyl)-1H-benzo[d]imidazol-1-yl)propyl)piperidin-3-ol]
IC50: ≤ 100 nM

Cn1c(=O)c2c(ncn2CCC[C@H]2NCCC[C@@H]2O)n(C)c1=O [Example 162, 7-(3-((2R,3S)-3-hydroxypiperidin-2-yl)propyl)-1,3-dimethyl-1H-purine-2,6(3H,7H)-dione]
IC50: ≥ 500 nM

COC(=O)c1cn(CCC[C@H]2NCCC[C@@H]2O)c2c(Cl)cccc12 [Example 154, methyl 7-chloro-1-(3-((2R,3S)-3-hydroxypiperidin-2-yl)propyl)-1H-indole-3-carboxylate]
IC50: 100 to 500 nM

COC(=O)c1cn(CCC[C@H]2NCCC[C@@H]2O)c2c(Br)cccc12 [Example 149, methyl 7-bromo-1-(3-((2R,3S)-3-hydroxypiperidin-2-yl)propyl)-1H-indole-3-carboxylate]
IC50: 100 to 500 nM

Cc1cc2ncn(CCC[C@H]3NCCC[C@@H]3O)c2cc1C [Example 55, (2R,3S)-2-(3-(5,6-dimethyl-1H-benzo[d]imidazol-1-yl)propyl)piperidin-3-ol]
IC50: ≥ 500 nM

COC(=O)c1cn(C/C=C/[C@H]2NCCC[C@@H]2O)c2c(Cl)cccc12 [Example 212, methyl 7-chloro-1-((E)-3-((2R,3S)-3-hydroxypiperidin-2-yl)allyl)-1H-indole-3-carboxylate]
IC50: ≥ 500 nM

O[C@H]1CCCN[C@H]1CCCn1cnc2c(Cl)c(Cl)ccc21 [Example 41, (2S,3S)-2-(3-(4,5-dichloro-1H-benzo[d]imidazol-1-yl)propyl)piperidin-3-ol]
IC50: ≥ 500 nM

O[C@H]1CCCN[C@@H]1CCCn1cnc2ccc(Br)cc21 [Example 4, (2R,3S)-2-(3-(6-bromo-1H-benzo[d]imidazol-1-yl)propyl)piperidin-3-ol]
IC50: 100 to 500 nM

CCCCn1cc(-c2cc(Cl)cc3ncn(CCC[C@H]4NCCC[C@@H]4O)c23)cn1 [Example 113, (2R,3S)-2-(3-(7-(1-butyl-1H-pyrazol-4-yl)-5-chloro-1H-benzo[d]imidazol-1-yl)propyl)piperidin-3-ol]
IC50: 100 to 500 nM

O[C@H]1CCCN[C@@H]1/C=C/Cn1ccc2cccnc21 [Example 196, (2R,3S)-2-((E)-3-(1H-pyrrolo[2,3-b]pyridin-1-yl)prop-1-en-1-yl)piperidin-3-ol]
IC50: ≥ 500 nM
